Results on 17 molecules are retold here after paper PMC8386742, “Discovery of N-aryl sulphonamide-quinazoline derivatives as anti-gastric cancer agents in vitro and in vivo via activating the Hippo signalling pathway” (Journal of Enzyme Inhibition and Medicinal Chemistry, 2021).

Read-outs that look alike come from different tables or passages of the source.

Series [1] concerns MGC-803 cells. Particulars: 48 h, cited from earlier work.
Series [2] concerns MGC-803 cells. Put plainly: MTT antiproliferative assay, MGC-803 cells. The class given is cell-based, human. Particulars: Homo sapiens, MGC-803, 48 h, exposure for 48 h. The protocol:
(§1) The in vitro antiproliferative activities of new target compounds 6a–6g, 9a–9i, 10a–10j, 11a–11j, and 14a–14d were evaluated against four human cancer cell lines (MGC-803, PC-3, HCT-116, and MCF-7) using MTT assay and 5-FU as a positive drug. The following Tables 1–[4] depicted the results of in vitro antiproliferative activity.
(§2) Cell lines used were cultured in humidified incubator in a humidified atmosphere of 5% CO2 and 95% air. The RPMI-1640 medium was supplemented with 10% foetal bovine serum, penicillin (100 U/ml) and streptomycin (0.1 mg/ml).
(§3) Cell lines were seeded into 96-well plates and incubated for 24 h. Then cells were treated with different concentrations of compounds. And after another 48 h, MTT reagent (20 μL per well) was added to each well and then incubated at 37 °C for 4 h. After the suspension was discarded, formazan was then dissolved with DMSO. Absorbencies of formazan solution were measured at 490 nm. The IC50 values of tested compounds were calculated by SPSS version 17.0.
(In general: Tetrazolium assays rely on reduction of a dye to a coloured formazan, in cell work by metabolically active cells.)

For another series, the system named is MCF-7 cells. Put plainly: MTT antiproliferative assay, MCF-7 cells. It counts as cell-based, human. As to conditions: exposure for 48 h. The protocol: as §1, §2, §3
For another series, the system named is HCT-116 cells. Put plainly: MTT antiproliferative assay, HCT-116 cells. It counts as cell-based, human. As to conditions: exposure for 48 h. The protocol:
as §1, §2, §3

For another series, the system named is PC-3 cells. Put plainly: MTT antiproliferative assay, PC-3 cells. It counts as cell-based, human. The protocol:
as §1, §2, §3

The subject of another series is SGC-7901 cells. As to the kind of experiment: MTT antiproliferative assay, SGC-7901 gastric cancer cells. The class given is cell-based. As to conditions: exposure for 48 h. The protocol: (§4) Furthermore, MGC-803 cells were more sensitive to the compounds than HCT-116, PC-3 cells MCF-7 cells. Moreover, we chose two other common gastric cancer cell lines (HGC-27 and SGC-7901) and another two normal cells GES-1 and HUEVC cells to examine for the inhibitory activity of compound 9i.
as §2, §3

The next series has as its system HGC-27 cells. Put plainly: MTT antiproliferative assay, HGC-27 gastric cancer cells. It counts as cell-based. Particulars: MTT, exposure for 48 h. The protocol: as §4, §2, §3
The subject of a further series is GES-1 cells. Put plainly: MTT antiproliferative assay, GES-1 normal gastric epithelial cells. The class given is cell-based. As to conditions: MTT, exposure for 48 h, non-cancer cell line.
Excerpt: as §4
Since compound 9i presented high potency against cancer cells and MGC-803 cells was more sensitive to compound 9i, compound 9i, MGC-803, another two gastric cancer cells SGC-7901, HGC-27, and GES-1(normal gastric epithelial cells) were used for further detection. As shown in Figures 3(A,B), compound 9i inhibited three gastric cancer cell lines in the dose and time-dependent manners. The inhibition ratios of compound 9i against three gastric cancer cells were all above 50% after 48 h in the high dosage group. Moreover, MGC-803 and SGC-7901 cell lines were more sensitive and compound 9i inhibited over 65% cell viability with high dose treatment for 48 h.
as §2, §3

The subject of the next series is HUEVC cells. Put plainly: MTT antiproliferative assay, HUEVC normal cells. It counts as cell-based. Particulars: exposure for 48 h, non-cancer cell line. The protocol:
as §4, §2, §3

Setting [3] is: Homo sapiens, PC-3, exposure for 48 h.

In general, IC50 refers to the concentration that inhibits the measured activity by half. The melting point is the temperature, or range, at which the solid turns liquid.

For the molecule `COc1ccc(CN(C(=O)CSc2nc3ccccc3[nH]2)c2cc(OC)c(OC)c(OC)c2)cc1` [Compound 1], the IC50 in the series with MGC-803 cells [1] (previously reported compound 1 ref 31) was 1.23 µM.
Regarding `COc1cc(N(Cc2nc3ccccc3[nH]2)S(=O)(=O)c2ccc(C)cc2)cc(OC)c1OC` [Compound 2], in the series on MGC-803 cells [1] (previously reported compound 2 ref 32), the IC50 is 1.02 µM.
With `COc1ccc(S(=O)(=O)N(Cc2ccccc2)c2cc(OC)c(OC)c(OC)c2)cc1` [Compound 9a, N-benzyl-4-methoxy-N-(3,4,5-trimethoxyphenyl) benzene-sulfonamide], the melting point is 161 to 162 °C. Further, it took 8.57 ± 1.62 µM to reach half-maximal inhibition with MGC-803 cells [2] (IC50). Besides, in the series on MCF-7 cells (Homo sapiens, MCF7, 48 h), half-maximal inhibition (IC50) was put at 24.5 ± 0.61 µM. In the series with HCT-116 cells (Homo sapiens, HCT-116, 48 h), this molecule yielded an IC50 of 18.8 ± 1.72 µM. This molecule yielded an IC50 with PC-3 cells (setting [3]) of 16.2 ± 1.06 µM.
The corresponding values for `COc1cc(N(Cc2nc(C)c3ccccc3n2)C(=O)c2ccc(F)cc2)cc(OC)c1OC` [Compound 11b, 4-Fluoro-N-((4-methylquinazolin-2-yl)methyl)-N-(3,4,5-trimethoxyphenyl) benzamide] are 162 to 163 °C, 14.1 ± 1.01 µM, 29.7 ± 1.83 µM, 18.9 ± 1.23 µM and 31.1 ± 2.04 µM.
The corresponding values for `COc1ccc(S(=O)(=O)N(Cc2nc(C)c3ccccc3n2)c2cc(OC)c(OC)c(OC)c2)cc1OC` [Compound 10h, 3,4-Dimethoxy-N-((4-methylquinazolin-2-yl)methyl)-N-(3,4,5-trimethoxyphenyl)benzene-sulfonamide] are 129 to 130 °C, 14.2 ± 1.03 µM, 18.5 ± 0.81 µM, 22.9 ± 1.34 µM and 36.6 ± 0.34 µM.
For `O=c1[nH]cc(F)c(=O)[nH]1` [Compound 5-Fu, reference compound], the IC50 in the series with SGC-7901 cells was found to be 3.88 µM; in the series with HGC-27 cells it was 4.94 µM; in the series with GES-1 cells, 10.2 µM; in the series on HUEVC cells it was 18.5 µM; with MCF-7 cells, 12.1 ± 1.28 µM; in the series with HCT-116 cells, 14.4 ± 1.73 µM. For the same molecule, the IC50 in the series on PC-3 cells (exposure for 48 h) worked out at 17.1 ± 1.42 µM.
On to `COc1ccc(CN(c2cc(OC)c(OC)c(OC)c2)S(=O)(=O)c2cccnc2)cc1` [Compound 6g, N-(4-methoxybenzyl)-N-(3,4,5-trimethoxyphenyl) pyridine-3-sulphonamide], for which the melting point lay in the range of 162 to 163 °C. The molecule further registered an IC50 in the series with MGC-803 cells [2] of 38.2 ± 1.55 µM. Further, the IC50 in the series with MCF-7 cells (Homo sapiens, MCF7, 48 h) was over 40 µM. The IC50 in the series on HCT-116 cells (Homo sapiens, HCT-116, 48 h) was over 40 µM. Moreover, half-maximal inhibition with PC-3 cells (setting [3]) (IC50) was put at 16.9 ± 1.58 µM.
Take `COc1cc(N(Cc2nc(C)c3ccccc3n2)C(=O)c2ccccc2)cc(OC)c1OC` [Compound 11a, N-((4-Methylquinazolin-2-yl)methyl)-N-(3,4,5-trimethoxyphenyl) benzamide]: the melting point lay in the range of 112 to 113 °C. Half-maximal inhibition in the series on MGC-803 cells [2] (IC50) required 18.5 ± 1.17 µM. This molecule also returned an IC50 with MCF-7 cells (Homo sapiens, MCF7, 48 h) of 25.3 ± 1.78 µM. The molecule also yielded an IC50 in the series on HCT-116 cells (Homo sapiens, HCT-116, 48 h) of 19.8 ± 1.49 µM. In addition, in the series on PC-3 cells (setting [3]), 25.3 ± 1.78 µM corresponded to half-maximal inhibition (IC50).
`COc1cc(N(Cc2nc(C)c3ccccc3n2)S(=O)(=O)c2ccc(C(C)(C)C)cc2)cc(OC)c1OC` [Compound 10g, 4-(Tert-butyl)-N-((4-methylquinazolin-2-yl)methyl)-N-(3,4,5-trimethoxyphenyl) benzene-sulfonamide] had a melting point of 144 to 145 °C. The molecule also registered an IC50 in the series with MGC-803 cells [2] of 12.8 ± 1.38 µM. Besides, in the series with MCF-7 cells (Homo sapiens, MCF7, 48 h), the IC50 was 28.1 ± 1.82 µM. In the series on HCT-116 cells (Homo sapiens, HCT-116, 48 h), this molecule had an IC50 of 22.4 ± 1.67 µM. The same molecule had an IC50 in the series with PC-3 cells (setting [3]) of 18.9 ± 1.57 µM.
For `COc1ccc(S(=O)(=O)N(Cc2ccc(Cl)cc2)c2cc(OC)c(OC)c(OC)c2)cc1` [Compound 9b, N-(4-chlorobenzyl)-4-methoxy-N-(3,4,5-trimethoxyphenyl) benzene-sulphonamide] the same measures were 172 to 173 °C, 19.2 ± 1.07 µM, 23.4 ± 1.53 µM, 23 ± 5.25 µM and 36.1 ± 0.01 µM.
The corresponding values for `COc1cc(N(Cc2nc(C)c3ccccc3n2)C(=O)c2ccccc2Cl)cc(OC)c1OC` [Compound 11d, 2-Chloro-N-((4-methylquinazolin-2-yl)methyl)-N-(3,4,5-trimethoxyphenyl) benzamide] are 190 to 191 °C, over 40 µM, over 40 µM, over 40 µM and over 40 µM.
Turning to `COc1cc(N(Cc2nc(C)c3ccccc3n2)S(=O)(=O)c2cccs2)cc(OC)c1OC` [Compound 10i, N-((4-Methylquinazolin-2-yl)methyl)-N-(3,4,5-trimethoxyphenyl)thiophene-2-sulphonamide], the melting point lay within 151 to 152 °C. The 50% inhibitory concentration (IC50) with MGC-803 cells [2] came to 16.8 ± 1.42 µM. The molecule also showed an IC50 in the series with MCF-7 cells (Homo sapiens, MCF7, 48 h) of 30.2 ± 1.81 µM. Further, inhibition with HCT-116 cells (Homo sapiens, HCT-116, 48 h) was half-maximal at 20.4 ± 1.92 µM (IC50). Besides, the IC50 with PC-3 cells (setting [3]) worked out at 27.8 ± 2.02 µM.
In the case of `COc1cc(N(Cc2nc(C)c3ccccc3n2)C(=O)c2ccc(C(C)(C)C)cc2)cc(OC)c1OC` [Compound 11g, 4-(Tert-butyl)-N-((4-methylquinazolin-2-yl)methyl)-N-(3,4,5-trimethoxyphenyl) benzamide], the melting point was 117 to 118 °C. In the series with MGC-803 cells [2], this molecule gave an IC50 of over 40 µM. Besides, the IC50 in the series on MCF-7 cells (Homo sapiens, MCF7, 48 h) was over 40 µM. Further, in the series on HCT-116 cells (Homo sapiens, HCT-116, 48 h), the IC50 is over 40 µM. In the series on PC-3 cells (setting [3]), this molecule registered an IC50 of over 40 µM.
In turn, `COc1ccc(S(=O)(=O)N(Cc2ccc(C)cc2)c2cc(OC)c(OC)c(OC)c2)cc1` [Compound 9d, 4-Methoxy-N-(4-methylbenzyl)-N-(3,4,5-trimethoxyphenyl) benzene-sulphonamide] gave a melting point of 164 to 165 °C. Besides, inhibition in the series on MGC-803 cells [2] was half-maximal at 5.83 ± 1.75 µM (IC50). For the same molecule, in the series with MCF-7 cells (Homo sapiens, MCF7, 48 h), half-maximal inhibition (IC50) required 41.8 ± 0.43 µM. This molecule also gave an IC50 in the series on HCT-116 cells (Homo sapiens, HCT-116, 48 h) of 11.9 ± 2.26 µM. In the series with PC-3 cells (setting [3]), this molecule gave an IC50 of 15.6 ± 1.57 µM.
The corresponding values for `COc1cc(C(=O)N(Cc2nc(C)c3ccccc3n2)c2cc(OC)c(OC)c(OC)c2)cc(OC)c1OC` [Compound 11i, 3,4,5-Trimethoxy-N-((4-methylquinazolin-2-yl)methyl)-N-(3,4,5-trimethoxyphenyl) benzamide] are 129 to 130 °C, 16.8 ± 2.02 µM, over 40 µM, 20.4 ± 1.92 µM and over 40 µM.
For `COc1cc(N(Cc2nc(C)c3ccccc3n2)C(=O)c2cccs2)cc(OC)c1OC` [Compound 11j, N-((4-methylquinazolin-2-yl)methyl)-N-(3,4,5-trimethoxyphenyl)thiophene-2-carboxamide] the same measures were 136 to 137 °C, 14.7 ± 1.88 µM, over 40 µM, 24.8 ± 2.13 µM and over 40 µM.
For `COc1cc(N(Cc2nc(C)c3ccccc3n2)C(=O)c2c(C)cc(C)cc2C)cc(OC)c1OC` [Compound 11f, 2,4,6-Trimethyl-N-((4-methylquinazolin-2-yl)methyl)-N-(3,4,5-trimethoxyphenyl) benzamide] the same measures were 209 to 210 °C, 32.8 ± 2.12 µM, over 40 µM, 28.5 ± 2.64 µM and over 40 µM.
